Measured values taken from patent US20240207207A1, “METHODS FOR MITIGATING AND PREVENTING PROTEOSTASIS-BASED INJURIES” (San Diego State University (SDSU) Foundation, dba San Diego …, priority 2018, published 2024).

Legend:
[1] = system: ATF6-regulated genes Grp78 and Cat; experiment: ATF6 target gene induction in mouse tissues after intravenous administration (qPCR, IHC, immunoblot); settings: in vivo, mouse heart
Description: (§1) Immunoblot analysis. NRVM were lysed and subjected to immunoblot analysis, as previously described^10. In brief, cultures were lysed with VC lysis buffer made from 20 mM Tris-HCl (pH 7.5), 150 mM NaCl, 0.1% SDS, 1% Triton X-100™, protease inhibitor cocktail (Roche Diagnostics, Indianapolis, IN) and phosphatase inhibitor cocktail (Roche Diagnostics). Samples comprising 10 μg of protein were mixed with Laemmli sample buffer, boiled, then subjected to SDS-PAGE followed by transfer onto PVDF membranes for immunoblotting. Full-length Atf6 (p90) was detected with an antibody from SAB Signalway™ Antibody (1:1000, cat #32008, College Park, MD), while active Atf6 (p50) was detected with an antibody from Proteintech™ (1:1000, cat #24169-1-AP, Rosemont, IL). […] The oxidation state of ATF6 in NRVM treated with compound 147 was analyzed by gel-shift essentially as previously described^32. […]
(§2) Malondialdehyde assay. Lipid peroxidation was determined by measuring the levels of malondialdehyde (MDA) using a TBARS assay kit (Cayman Chemical, Ann Arbor, MI) according to the manufacturer's instructions as previously described^10. […]

[2] = system: IRE1-regulated Erdj4, PERK-regulated Atf4; experiment: qPCR for IRE1 and PERK target genes in mouse hearts; assay type: in vivo; settings: WT or ATF6 cKO mice, 24 hours after treatment, LV
Description: as §1, §2

[3] = system: hearts of mice that were not subjected to I/R; experiment: 7-day dosing protocols in mice not subjected to I/R: cardiac performance and safety; assay type: in vivo, mouse
Description: In vivo myocardial ischemia/reperfusion. Surgical myocardial I/R was performed as previously described^10. Briefly, mice were anesthetized with 2% isoflurane and a thoracotomy was performed to isolate the heart, after which the left anterior descending coronary artery (LAD) was ligated with a 6-0 Prolene™ suture for 30 minutes, followed by suture removal and either 24 hours or 7 days of reperfusion. Regional ischemia was confirmed by visual inspection of the discoloration of the myocardium distal of the ligation, which is characteristic of impaired blood flow. Animals assigned as shams underwent the thoracotomy surgical procedure, but weren't subjected to LAD ligation. Animals were randomly assigned to trial groups prior to outset of the experiment by a single investigator, while the surgeon and data analyst were blinded to trial assignments. Animals designated to receive either control compound or compound 147 at the time of reperfusion received 2 mg/kg of respective compounds via IV injection 5 minutes prior to release of the ligation. Twenty-four hours after reperfusion, 1% of Evans Blue was injected apically to determine the area at risk (AAR). Hearts were harvested and 1-mm sections of the hearts were stained with 1% 2,3,5-triphenyltetrazolium chloride (TTC) to measure the infarcted area (INF) as previously described^36. The AAR, INF and left ventricle area (LV) from digitized images of heart sections were analyzed using ImageJ software. […] A separate investigator analyzed the AAR, INF, and LV and was blinded to the animal trial assignments. […] Blood was placed in heparin- and EDTA-coated vacutainer (BD Vacutainer) and centrifuged at 3000 rpm for 10 minutes and plasma samples were analyzed for cardiac troponin I with a Mouse cTnI High-Sensitivity ELISA kit (Life Diagnostics, Inc.).
Hepatic triglyceride assay. Hepatic triglyceride assay was performed as previously described^39. Briefly, livers were harvested and 10 mg extracts were homogenized and analyzed for triglyceride content using the EnzyChrom Triglyceride Assay Kit™ (BioAssay Systems).
Transthoracic echocardiography. Transthoracic echocardiography was performed using an ultrasound imaging system (Vevo 2100 System™, Fujifilm VisualSonics, Toronto, Ontario, Canada) as described^40. Diastolic function was determined as previously described^33. Briefly, echocardiography coupled with pulse-wave Doppler was used to visualize transmitral flow velocities and were recorded by imaging the mitral orifice at the point of the mitral leaflets. Waveforms were recorded and analyzed for peak early- and late-diastolic transmitral flow velocities corresponding to E and A waves, respectively.
Malondialdehyde assay. Lipid peroxidation was determined by measuring the levels of malondialdehyde (MDA) using a TBARS assay kit (Cayman Chemical, Ann Arbor, MI) according to the manufacturer's instructions as previously described^10. In vivo experimental compound administration. Control compound and compound 147 were suspended to a final concentration of 0.2 mg/mL in 10% DMSO. Mice were weighed prior to administration of compounds and, subsequently, non-anesthetized 10-week old WT or ATF6 cKO mice were injected with ˜250 μL of stock compounds via the lateral tail vein depending upon body mass to ensure accurate administration of 2 mg/kg. […] Since compound 147 and tunicamycin have similar molecular weights, this dose of compound 147 is near the molar equivalent of the typical dose of tunicamycin. […]

[4] = system: acute myocardial I/R injury; experiment: acute in vivo myocardial ischemia/reperfusion; set-up: species or system mouse; settings: acute I/R protocol, 24 h
Description: In vivo myocardial ischemia/reperfusion. Surgical myocardial I/R was performed as previously described^10. Briefly, mice were anesthetized with 2% isoflurane and a thoracotomy was performed to isolate the heart, after which the left anterior descending coronary artery (LAD) was ligated with a 6-0 Prolene™ suture for 30 minutes, followed by suture removal and either 24 hours or 7 days of reperfusion. Regional ischemia was confirmed by visual inspection of the discoloration of the myocardium distal of the ligation, which is characteristic of impaired blood flow. Animals assigned as shams underwent the thoracotomy surgical procedure, but weren't subjected to LAD ligation. […] The AAR, INF and left ventricle area (LV) from digitized images of heart sections were analyzed using ImageJ software. […] A separate investigator analyzed the AAR, INF, and LV and was blinded to the animal trial assignments. […] Blood was placed in heparin- and EDTA-coated vacutainer (BD Vacutainer) and centrifuged at 3000 rpm for 10 minutes and plasma samples were analyzed for cardiac troponin I with a Mouse cTnI High-Sensitivity ELISA kit (Life Diagnostics, Inc.).
Transthoracic echocardiography. […] Diastolic function was determined as previously described^33. […] Waveforms were recorded and analyzed for peak early- and late-diastolic transmitral flow velocities corresponding to E and A waves, respectively. […]

[5] = general in vivo properties (brain penetration, tolerance)
Description: Malondialdehyde assay. Lipid peroxidation was determined by measuring the levels of malondialdehyde (MDA) using a TBARS assay kit (Cayman Chemical, Ann Arbor, MI) according to the manufacturer's instructions as previously described^10. In vivo experimental compound administration. Control compound and compound 147 were suspended to a final concentration of 0.2 mg/mL in 10% DMSO. Mice were weighed prior to administration of compounds and, subsequently, non-anesthetized 10-week old WT or ATF6 cKO mice were injected with ˜250 μL of stock compounds via the lateral tail vein depending upon body mass to ensure accurate administration of 2 mg/kg. […] Since compound 147 and tunicamycin have similar molecular weights, this dose of compound 147 is near the molar equivalent of the typical dose of tunicamycin. It is relevant to note that for compound 147, a dose of 2 mg/kg is similar to FDA-approved cardiovascular drugs, such as many angiotensin-converting enzyme (ACE) inhibitors, which are used in small-animal models at 2 mg/kg^42.

[6] = Trials 1-3, 7 days, mice without I/R

## Cc1ccc(O)c(NC(=O)CCc2ccccc2)c1 [compound 147]
[1]
  duration of ATF6-target gene induction: ~3 days
[2]
  expression levels of Erdj4 or Atf4 in hearts: no effect
[3]; [6]
  expression of pathology-associated genes Nppa, Nppb, Col1a1 or Myh7: None of the dosing protocols resulted in
  increased plasma cTnI: None of the dosing protocols resulted in
  pathological cardiac hypertrophy (heart weight to body weight): None of the dosing protocols resulted in
[3]; any of the trials, data not shown
  liver or kidney deficits (steatosis by hepatic triglyceride accumulation, glomerular filtration rate by creatinine clearance): no apparent deficits were observed
[3]; over the course of 7 days
  cardiotoxicity: does not induce cardiotoxicity
[4]
  cardiac performance, chamber size, or pathological hypertrophy by echocardiography: no effect
[5]
  blood brain barrier crossing: has the capacity to cross the blood brain barrier
  toxicity or deleterious off-target effects: does not exhibit any apparent toxicity or deleterious off-target effects
